Source: publication PMC3866116 (PLoS ONE, 2013)
Read-outs that look alike come from different tables or passages of the source.

Columns and labels:
[1] = Cytotoxicity (MTS assay) in Huh7/Rep-Feo replicon cells; format: cell-based; settings: human, Huh7/Rep-Feo cells, MTS, read-out: CC50, fifty percent cytotoxicity concentration based on the reduction in cell viability
Description: (§1) The replicon cells were seeded at a density of 1×10^4 cells per well in a 96-well plate and then incubated at 37°C for 24 h. […] Cell viability was measured using a dimethylthiazol carboxymethoxy-phenylsulfophenyl tetrazolium (MTS) assay with a CellTiter 96 aqueous one-solution cell proliferation assay kit (Promega).

Huh7/Rep-Feo cells = assay: as above; format: cell-based; settings: Huh7/Rep-Feo, 1.3 to 40 µM, 72 h
Description: as §1

[2] = system: HCV subgenomic replicon RNA of genotype 1b strain N (Huh7/Rep-Feo cells); assay: Luciferase assay in HCV subgenomic replicon cell line Huh7/Rep-Feo; format: cell-based, hepatitis C virus; settings: for EC50: Hepatitis C virus, read-out: EC50, fifty percent effective concentration based on the inhibition of HCV replication; for HCV RNA replication (luciferase activity): various concentrations (compound 1: 1.3 to 40 µM), dose-dependent
Description: (§2) The Huh7/Rep-Feo cell line, which harbors the subgenomic replicon RNA composed of HCV IRES, the gene of the fusion protein consisting of neomycin phosphotransferase and firefly luciferase, EMCV IRES and a nonstructural gene of genotype 1b strain N in order in Huh7 cell line, was previously established. Thus, the luciferase activity corresponds to the level of HCV RNA replication. The cell line was maintained in Dulbecco's modified Eagle medium containing 10% fetal calf serum and 0.5 mg/mL G418 and cultured in absence of G418 when they were treated with compounds. The Lunet/Con1LUN Sb #26 cell line, which harbors the subgenomic replicon RNA of the Con1 strain (genotype 1b), was described previously. The OR6 cell line, which harbors the full genomic replicon RNA of the O strain (genotype 1b), was described previously. The HCV replicon cell line derived from the genotype 2a strain JFH1 was described previously. The viral RNA derived from the plasmid pJFH1 was transcribed and introduced into Huh7OK1 cells according to the method of Wakita et al.. The virus was amplified by the several times passages. The cells were infected with the virus at a multiplicity of infection (moi) of 1 and then treated with each compound at 24 h post-infection. The culture supernatants were harvested 72 h post-treatment to estimate the viral RNA as described below.
The replicon cells were seeded at 2×10^4 cells per well in a 48-well plate 24 h before treatment. […] The resulting cells were harvested 72 h post-treatment and lysed with cell culture lysis reagent (Promega, Madison, WI). The luciferase activity of each cell lysate was estimated using a luciferase assay system (Promega). The resulting luminescence was detected by a Luminescencer-JNR AB-2100 (ATTO, Tokyo, Japan).

[3] = system: ISGs (Mx1, MxA, IFIT4, ISG15, OAS1, OAS2, OAS3); assay: RT-PCR of interferon stimulated genes in replicon cells; format: cell-based; settings: replicon cell line of genotype 1b, 48 h, listed as CAPE
Description: Total RNAs were prepared from cells by using the RNAqueous-4PCR kit (Life Technologies, Carlsbad, CA). Viral RNA were prepared from culture supernatants by using the QIAamp Viral RNA mini kit (QIAGEN, Hilden, Germany). The viral RNA genome was estimated by the qRT-PCR method described previously. RT-PCR was carried out by the method described previously which was slightly modified at the PCR step. The PCR samples were incubated once for 10 min at 95°C for an initial activation step of the AmpliTaq Gold DNA Polymerase (Life Technologies), and then subjected to an amplification step of 30 repeats of the cycle consisting of three segments as follow: 0.5 min at 95°C, 1 min at 55°C and 1 min at 72°C. The primers used in this study were as follows: Mx1: 5′-[…]-3′ and 5′-[…]-3′;

ISRE-promoter activity = assay: ISRE reporter assay in Huh7 OK1 cells; format: cell-based; settings: 48 h of treatment, interferon alpha 2b as positive control
HCV NS3 = assay: Western blotting of NS3 in Huh7/Rep-Feo cells; format: cell-based, hepatitis C virus; settings: Huh7/Rep-Feo cells treated 72 h, dose-dependent
Description: Western blotting was carried out by the method described previously. The antibodies to NS3 (clone 8G-2, mousemonoclonal, Abcam, Cambridge, UK), and beta-actin were purchased from Cell Signaling Technology (rabbit polyclonal, Danvers, MA, USA) and were used as the primary antibodies in this study.

[4] = system: HCV subgenomic replicon of genotype 2a strain JFH1; assay: Luciferase assay in genotype 2a JFH1 replicon cells; format: cell-based, hepatitis C virus; settings: Huh7 Rep/Reo-2a, JFH1 (2a)
Description: as §2, with “The cells were infected with the virus at a multiplicity of infection (moi) of 1 and then treated with each compound at 24 h post-infection. The culture supernatants were harvested 72 h post-treatment to estimate the viral RNA as described below.” left out
(§3) The replicon cells were seeded at 2×10^4 cells per well in a 48-well plate 24 h before treatment. […] The resulting luminescence was detected by a Luminescencer-JNR AB-2100 (ATTO, Tokyo, Japan).

[5] = system: HCV full genomic replicon RNA of the O strain (genotype 1b); assay: Luciferase assay in OR6 full genome replicon cells; format: cell-based, hepatitis C virus
Description: as §2, with “The cells were infected with the virus at a multiplicity of infection (moi) of 1 and then treated with each compound at 24 h post-infection. The culture supernatants were harvested 72 h post-treatment to estimate the viral RNA as described below.” left out
as §3

[6] = system: HCV subgenomic replicon RNA of the Con1 strain (genotype 1b); assay: Luciferase assay in Con1 LUN Sb #26 replicon cells; format: cell-based, hepatitis C virus
Description: as §2, with “The cells were infected with the virus at a multiplicity of infection (moi) of 1 and then treated with each compound at 24 h post-infection. The culture supernatants were harvested 72 h post-treatment to estimate the viral RNA as described below.” left out
as §3

EMCV or HCV IRES = assay: Effect on IRES-dependent translation in transfected Huh7 cells; format: cell-based; settings: 40 µg/ml, 72 h
Description: (§4) Huh7 OK1 cells were transfected with pEF.Rluc.HCV.IRES.Feo or pEF.Rluc.EMCV.IRES.Feo [39]. These transfected cells were seeded at 2×10^4 cells per well in a 48-well plate 24 h before treatment, treated with DMSO or compound 10, and then harvested at 72 h post-treatment. The firefly luciferase activities were measured with a luciferase assay system (Promega). The total protein concentration was measured using the BCA Protein Assay Reagent Kit (Thermo Scientific, Rockford, IL, USA) to normalize luciferase activity. To evaluate the interferon response, Huh7OK1 cells were seeded on a 48 well plate at a density of 2×10^4 cells per well, and transfected with pISRE-TA-Luc (Takara bio, Shiga, Japan) and phRG-TK (Promega). These transfected cells were incubated in the presence of compounds, IFN-α 2b, or DMSO, and then harvested at 48 h post-treatment. The firefly luciferase and Renilla luciferase activities were quantified by using Dual luciferase reporter assay system (Promega).

[7] = system: HCVcc derived from JFH-1 strain; assay: HCVcc virus production in Huh7 OK1 cells (supernatant viral RNA by qRT-PCR); format: cell-based; settings: Hepatitis C virus, 24 h, read-out: EC50 of HCV viral production
Description: as §2, with “below. […]” for “below.”

[8] = system: firefly and Renilla luciferases; assay: Effect on firefly and Renilla luciferase activities in transfected Huh7 cells; format: cell-based; settings: 40 µg/ml, 72 h
Description: as §4

## O=C(/C=C/c1ccc(O)c(O)c1)OCCc1ccccc1 [Compound 1, Caffeic acid phenethyl ester]
[1]
  CC50 at 72 h: 136 ± 1.9 µM
Huh7/Rep-Feo cells
  cell viability: did not affect
[2]; Huh-7, 72 h
  EC50: 9 ± 0.7 µM
[2]; Huh7/Rep-Feo, 72 h
  HCV RNA replication (luciferase activity): suppressed
[3]
  transcriptional expressions of ISGs (Mx1, MxA, IFIT4, ISG15, OAS1, OAS2, OAS3) induced: did not induce
ISRE-promoter activity
  effect on ISRE-promoter activities: no significant effects
HCV NS3
  NS3 protein level: decreased

## CCCCCCCCOC(=O)/C=C/c1ccc(O)c(O)c1 [Compound 10, Caffeic acid n-octyl ester]
[4]; Hepatitis C virus, Huh-7, subgenome, 72 h, read-out: EC50, fifty percent effective concentration based on the inhibition of HCV replication
  EC50: 1 ± 0.3 µM
[4]
  SI, selectivity index (CC50/EC50): 60.0
[5]; Hepatitis C virus, OR6, full genome, O (1b), 72 h, read-out: EC50, fifty percent effective concentration based on the inhibition of HCV replication
  EC50: 1.5 ± 0.4 µM
[5]; OR6, O (1b)
  SI, selectivity index (CC50/EC50): 41.1
[6]; Con1 LUN Sb #26, Con1 (1b)
  SI, selectivity index (CC50/EC50): 63.1
[6]; Hepatitis C virus, Con1 LUN Sb #26, subgenome, Con1 (1b), 72 h, read-out: EC50, fifty percent effective concentration based on the inhibition of HCV replication
  EC50: 1 ± 0.1 µM
[1]; Huh7/Rep-Feo replicon cells
  CC50 at 72 h: 71.7 ± 8.5 µM
EMCV or HCV IRES
  IRES-dependent translation: not effect
[7]
  EC50: 1.8 ± 0.4 µM
[2]; Huh-7, Huh7/Rep-Feo, subgenome, strain N (1b), 72 h
  EC50: 2.7 ± 0.1 µM
[2]; Huh7/Rep-Feo, strain N (1b)
  SI, selectivity index (CC50/EC50): 26.6
[2]; Huh7/Rep-Feo, 72 h
  HCV RNA replication (luciferase activity): reduced
[8]
  enzymatic activities of firefly and Renilla luciferases: not effect
ISRE-promoter activity
  effect on ISRE-promoter activities: no significant effects
HCV NS3
  NS3 protein level: reduced
